Measured values taken from the kinase profiling compilation of Christmann-Franck et al. (2016).

Tests used:
Experiment in all cases: radiometric filter-binding kinase assay
[1] = biological target: MKNK1 (human) (UniProt Q9BUB5)
[2] = biological target: JAK2 JH1 JH2 (human) (UniProt O60674); details: compound 10.0 µM
[3] = biological target: MAP2K1 (human) (UniProt Q02750)
[4] = biological target: RIPK2 (human) (UniProt O43353); details: compound 10.0 µM
[5] = biological target: PHKG1 (human) (UniProt Q16816)
[6] = biological target: PRKCZ (human) (UniProt Q05513)
[7] = biological target: NTRK1 (human) (UniProt P04629); details: compound 10.0 µM
[8] = biological target: MAP3K9 (human) (UniProt P80192); details: compound 10.0 µM
[9] = biological target: EPHB3 (human) (UniProt P54753); details: compound 10.0 µM
[10] = tested on: LCK (mouse); details: accession and sequence are those of the human protein
[11] = biological target: INSR (human) (UniProt P06213); details: compound 10.0 µM
[12] = biological target: MAPK10 (human) (UniProt P53779)
[13] = biological target: SYK (human) (UniProt P43405); details: compound 10.0 µM
[14] = biological target: NUAK1 (human) (UniProt O60285); details: compound 10.0 µM
[15] = tested on: AKT2 (human), P31751 [S474D]
[16] = biological target: MARK4 (human) (UniProt Q96L34); details: compound 10.0 µM
[17] = biological target: PAK4 (human) (UniProt O96013)
[18] = biological target: CSNK2A1 (human) (UniProt P68400)
[19] = biological target: YES1 (human) (UniProt P07947); details: compound 10.0 µM
[20] = biological target: MAPK13 (human) (UniProt O15264)
[21] = biological target: CaMK1 (human) (UniProt Q14012)
[22] = biological target: SRC (human) (UniProt P12931)
[23] = biological target: IGF1R (human) (UniProt P08069); details: compound 10.0 µM
[24] = biological target: DYRK1A (human) (UniProt Q13627)
[25] = biological target: MAP3K11 (human) (UniProt Q16584); details: compound 10.0 µM
[26] = tested on: PRKAA1 or PRKAA2 (rat); details: accession and sequence are those of the human protein
[27] = biological target: MARK3 (human) (UniProt P27448)
[28] = biological target: CHEK1 (human) (UniProt O14757)
[29] = biological target: INSRR (human) (UniProt P14616); details: compound 10.0 µM
[30] = biological target: MINK1 (human) (UniProt Q8N4C8); details: compound 10.0 µM
[31] = biological target: AURKB (human) (UniProt Q96GD4)
[32] = biological target: CAMKK2 (human) (UniProt Q96RR4)
[33] = biological target: MST4 (human) (UniProt Q9P289); details: compound 10.0 µM
[34] = biological target: PIM2 (human) (UniProt Q9P1W9)
[35] = biological target: PRKACA (human) (UniProt P17612)
[36] = biological target: CDK2 CCNA2 (human) (UniProt P20248+P24941)

Sequence of MARK3 (human) (P27448 whole entry, looked up): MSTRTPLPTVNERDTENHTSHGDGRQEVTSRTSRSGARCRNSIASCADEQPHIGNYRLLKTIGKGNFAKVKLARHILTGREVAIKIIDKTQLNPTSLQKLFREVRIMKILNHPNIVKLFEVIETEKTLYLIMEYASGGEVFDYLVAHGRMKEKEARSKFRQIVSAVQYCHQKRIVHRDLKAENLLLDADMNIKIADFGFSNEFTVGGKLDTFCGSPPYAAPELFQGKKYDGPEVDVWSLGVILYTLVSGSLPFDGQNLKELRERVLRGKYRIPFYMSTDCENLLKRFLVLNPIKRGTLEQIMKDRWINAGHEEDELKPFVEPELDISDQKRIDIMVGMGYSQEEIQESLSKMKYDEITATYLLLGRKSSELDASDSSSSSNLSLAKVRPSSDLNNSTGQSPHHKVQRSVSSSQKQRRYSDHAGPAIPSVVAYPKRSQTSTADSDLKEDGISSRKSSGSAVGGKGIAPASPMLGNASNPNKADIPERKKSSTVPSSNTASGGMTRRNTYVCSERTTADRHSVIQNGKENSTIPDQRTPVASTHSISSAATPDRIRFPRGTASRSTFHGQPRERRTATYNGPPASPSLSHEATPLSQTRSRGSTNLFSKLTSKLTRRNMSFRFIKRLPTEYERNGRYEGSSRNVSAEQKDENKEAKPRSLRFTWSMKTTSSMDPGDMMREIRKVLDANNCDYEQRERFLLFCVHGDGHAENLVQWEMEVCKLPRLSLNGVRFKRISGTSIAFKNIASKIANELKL
Sequence of PIM2 (human) (Q9P1W9 whole entry, looked up): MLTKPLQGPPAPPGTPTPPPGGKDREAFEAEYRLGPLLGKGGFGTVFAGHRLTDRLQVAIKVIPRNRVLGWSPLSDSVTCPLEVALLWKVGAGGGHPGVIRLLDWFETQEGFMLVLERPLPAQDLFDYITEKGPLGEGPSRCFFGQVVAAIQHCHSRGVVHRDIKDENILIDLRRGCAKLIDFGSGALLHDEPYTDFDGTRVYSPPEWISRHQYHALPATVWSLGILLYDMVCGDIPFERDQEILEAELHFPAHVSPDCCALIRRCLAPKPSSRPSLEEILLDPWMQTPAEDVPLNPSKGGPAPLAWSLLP
Sequence of PHKG1 (human) (Q16816 whole entry, looked up): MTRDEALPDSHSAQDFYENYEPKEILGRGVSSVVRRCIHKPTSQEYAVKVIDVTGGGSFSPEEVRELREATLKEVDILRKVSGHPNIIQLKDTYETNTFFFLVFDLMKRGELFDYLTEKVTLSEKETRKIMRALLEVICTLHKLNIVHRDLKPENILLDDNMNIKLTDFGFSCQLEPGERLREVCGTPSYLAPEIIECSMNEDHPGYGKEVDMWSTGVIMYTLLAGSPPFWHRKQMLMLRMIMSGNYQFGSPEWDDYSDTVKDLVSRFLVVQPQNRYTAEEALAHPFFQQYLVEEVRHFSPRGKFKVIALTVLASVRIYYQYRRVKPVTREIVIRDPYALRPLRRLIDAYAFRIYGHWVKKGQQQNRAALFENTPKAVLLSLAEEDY
Sequence of MAPK13 (human) (O15264 whole entry, looked up): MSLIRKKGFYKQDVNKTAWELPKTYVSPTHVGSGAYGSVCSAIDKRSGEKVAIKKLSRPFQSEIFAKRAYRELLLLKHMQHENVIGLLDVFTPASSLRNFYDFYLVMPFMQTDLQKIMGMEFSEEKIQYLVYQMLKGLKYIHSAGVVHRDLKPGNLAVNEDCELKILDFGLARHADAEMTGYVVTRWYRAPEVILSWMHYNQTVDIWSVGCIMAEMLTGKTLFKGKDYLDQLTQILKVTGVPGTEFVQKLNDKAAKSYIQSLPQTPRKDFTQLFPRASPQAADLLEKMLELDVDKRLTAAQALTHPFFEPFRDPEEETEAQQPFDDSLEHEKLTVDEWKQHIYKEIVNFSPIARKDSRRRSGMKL
Sequence of AKT2 (human), P31751 [S474D] (P31751 whole entry S474D, looked up): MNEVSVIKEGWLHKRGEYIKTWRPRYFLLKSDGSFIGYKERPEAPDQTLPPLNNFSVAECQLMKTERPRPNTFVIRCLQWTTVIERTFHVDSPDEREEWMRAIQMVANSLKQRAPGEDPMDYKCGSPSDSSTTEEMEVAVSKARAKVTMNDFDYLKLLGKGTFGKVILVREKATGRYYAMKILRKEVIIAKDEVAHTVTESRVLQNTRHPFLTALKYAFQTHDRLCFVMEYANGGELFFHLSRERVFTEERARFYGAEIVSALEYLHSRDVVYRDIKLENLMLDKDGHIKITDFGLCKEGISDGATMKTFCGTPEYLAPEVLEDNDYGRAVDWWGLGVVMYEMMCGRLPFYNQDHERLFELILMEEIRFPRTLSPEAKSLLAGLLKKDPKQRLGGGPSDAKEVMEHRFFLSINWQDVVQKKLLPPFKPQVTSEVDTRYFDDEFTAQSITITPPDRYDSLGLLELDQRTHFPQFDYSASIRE
Sequence of CHEK1 (human) (O14757 whole entry, looked up): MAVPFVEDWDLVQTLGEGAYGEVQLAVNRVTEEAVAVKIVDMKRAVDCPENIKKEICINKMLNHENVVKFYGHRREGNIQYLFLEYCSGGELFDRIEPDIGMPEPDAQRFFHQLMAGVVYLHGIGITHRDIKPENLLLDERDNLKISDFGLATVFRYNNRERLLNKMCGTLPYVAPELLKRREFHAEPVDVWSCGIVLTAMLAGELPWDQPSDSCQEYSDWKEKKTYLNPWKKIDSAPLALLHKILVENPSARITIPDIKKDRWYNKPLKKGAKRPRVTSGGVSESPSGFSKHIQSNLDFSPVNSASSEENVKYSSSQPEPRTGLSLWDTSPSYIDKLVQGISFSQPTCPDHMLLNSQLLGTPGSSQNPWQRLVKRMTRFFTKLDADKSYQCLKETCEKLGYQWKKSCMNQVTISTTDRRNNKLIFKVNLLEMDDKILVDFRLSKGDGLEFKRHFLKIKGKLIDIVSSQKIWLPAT
Sequence of CaMK1 (human) (Q14012 whole entry, looked up): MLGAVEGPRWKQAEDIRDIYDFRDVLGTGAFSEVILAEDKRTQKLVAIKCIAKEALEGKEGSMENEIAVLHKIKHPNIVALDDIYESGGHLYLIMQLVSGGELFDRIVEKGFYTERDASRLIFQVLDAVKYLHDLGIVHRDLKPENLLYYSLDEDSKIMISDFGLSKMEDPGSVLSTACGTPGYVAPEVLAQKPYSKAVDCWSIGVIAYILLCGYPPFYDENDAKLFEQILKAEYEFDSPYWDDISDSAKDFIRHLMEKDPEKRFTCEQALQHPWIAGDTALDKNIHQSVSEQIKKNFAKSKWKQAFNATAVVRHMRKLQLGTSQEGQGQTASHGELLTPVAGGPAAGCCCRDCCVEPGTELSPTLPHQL
Sequence of MAPK10 (human) (P53779 whole entry, looked up): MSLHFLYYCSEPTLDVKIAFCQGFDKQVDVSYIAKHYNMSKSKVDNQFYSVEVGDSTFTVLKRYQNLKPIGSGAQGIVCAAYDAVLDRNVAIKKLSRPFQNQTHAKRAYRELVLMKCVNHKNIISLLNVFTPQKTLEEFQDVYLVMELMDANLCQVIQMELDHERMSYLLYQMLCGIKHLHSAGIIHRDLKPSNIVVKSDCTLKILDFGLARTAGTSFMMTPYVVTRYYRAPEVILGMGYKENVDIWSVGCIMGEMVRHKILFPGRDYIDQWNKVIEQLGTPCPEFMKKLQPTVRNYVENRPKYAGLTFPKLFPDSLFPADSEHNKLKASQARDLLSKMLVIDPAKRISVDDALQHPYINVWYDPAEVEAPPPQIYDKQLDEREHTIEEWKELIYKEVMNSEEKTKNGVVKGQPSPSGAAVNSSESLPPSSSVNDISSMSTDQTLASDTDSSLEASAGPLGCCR
Sequence of SRC (human) (P12931 whole entry, looked up): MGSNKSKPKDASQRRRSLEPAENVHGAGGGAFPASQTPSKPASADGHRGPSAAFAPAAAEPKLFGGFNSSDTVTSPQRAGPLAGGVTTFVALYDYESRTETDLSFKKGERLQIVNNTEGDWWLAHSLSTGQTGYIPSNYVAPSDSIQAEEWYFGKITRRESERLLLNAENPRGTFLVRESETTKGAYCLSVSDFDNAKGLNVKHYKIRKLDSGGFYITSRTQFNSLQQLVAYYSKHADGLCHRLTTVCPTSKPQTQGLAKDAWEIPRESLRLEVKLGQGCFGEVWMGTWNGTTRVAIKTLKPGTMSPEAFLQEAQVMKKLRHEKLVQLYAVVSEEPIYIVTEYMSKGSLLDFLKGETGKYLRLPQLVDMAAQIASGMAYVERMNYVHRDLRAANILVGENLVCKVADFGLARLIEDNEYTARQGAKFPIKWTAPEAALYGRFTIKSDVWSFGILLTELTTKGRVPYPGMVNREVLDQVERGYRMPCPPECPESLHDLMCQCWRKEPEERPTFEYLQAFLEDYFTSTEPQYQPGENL
Sequence of CAMKK2 (human) (Q96RR4 whole entry, looked up): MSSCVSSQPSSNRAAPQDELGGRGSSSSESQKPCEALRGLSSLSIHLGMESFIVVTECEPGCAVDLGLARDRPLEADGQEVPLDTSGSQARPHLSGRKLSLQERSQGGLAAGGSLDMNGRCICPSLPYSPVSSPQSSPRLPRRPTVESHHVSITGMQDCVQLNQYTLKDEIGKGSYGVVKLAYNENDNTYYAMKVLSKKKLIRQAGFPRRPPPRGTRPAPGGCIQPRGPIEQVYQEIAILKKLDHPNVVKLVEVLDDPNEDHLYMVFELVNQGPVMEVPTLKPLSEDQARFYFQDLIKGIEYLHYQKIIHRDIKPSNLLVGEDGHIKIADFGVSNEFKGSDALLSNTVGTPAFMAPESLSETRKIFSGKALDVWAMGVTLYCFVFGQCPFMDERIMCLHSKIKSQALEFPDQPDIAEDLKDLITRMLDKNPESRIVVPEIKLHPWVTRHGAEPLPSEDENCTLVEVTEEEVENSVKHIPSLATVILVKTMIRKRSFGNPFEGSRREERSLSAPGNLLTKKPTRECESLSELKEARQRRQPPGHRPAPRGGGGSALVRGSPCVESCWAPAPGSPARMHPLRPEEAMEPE

residual activity ([1]; compound 1.0 µM): 102%
residual activity ([1]; compound 10.0 µM): 66%
residual activity ([1]; compound 50.0 µM): 125%
residual activity [2]: 27%
residual activity ([3]; compound 1.0 µM): 99%
residual activity ([3]; compound 10.0 µM): 81%
residual activity ([3]; compound 50.0 µM): 75%
residual activity [4]: 51%
residual activity ([5]; compound 1.0 µM): 58%
residual activity ([5]; compound 10.0 µM): 21%
residual activity ([5]; compound 50.0 µM): 23%
residual activity ([6]; compound 1.0 µM): 128%
residual activity ([6]; compound 10.0 µM): 105%
residual activity ([6]; compound 50.0 µM): 99%
residual activity [7]: 67%
residual activity [8]: 44%
residual activity [9]: 88%
residual activity ([10]; compound 1.0 µM): 115%
residual activity ([10]; compound 10.0 µM): 97%
residual activity ([10]; compound 50.0 µM): 59%
residual activity [11]: 50%
residual activity ([12]; compound 1.0 µM): 80%
residual activity ([12]; compound 10.0 µM): 87%
residual activity ([12]; compound 50.0 µM): 114%
residual activity [13]: 92%
residual activity [14]: 68%
residual activity ([15]; compound 1.0 µM): 108%
residual activity ([15]; compound 10.0 µM): 67%
residual activity ([15]; compound 50.0 µM): 76%
residual activity [16]: 99%
residual activity ([17]; compound 1.0 µM): 85%
residual activity ([17]; compound 10.0 µM): 80%
residual activity ([17]; compound 50.0 µM): 67%
residual activity ([18]; compound 1.0 µM): 101%
residual activity ([18]; compound 10.0 µM): 82%
residual activity ([18]; compound 50.0 µM): 49%
residual activity [19]: 77%
residual activity ([20]; compound 1.0 µM): 95%
residual activity ([20]; compound 10.0 µM): 91%
residual activity ([20]; compound 50.0 µM): 72%
residual activity ([21]; compound 1.0 µM): 75%
residual activity ([21]; compound 10.0 µM): 73%
residual activity ([21]; compound 50.0 µM): 38%
residual activity ([22]; compound 1.0 µM): 108%
residual activity ([22]; compound 10.0 µM): 81%
residual activity ([22]; compound 50.0 µM): 47%
residual activity [23]: 59%
residual activity ([24]; compound 1.0 µM): 94%
residual activity ([24]; compound 10.0 µM): 61%
residual activity ([24]; compound 50.0 µM): 17%
residual activity [25]: 35%
residual activity ([26]; compound 1.0 µM): 103%
residual activity ([26]; compound 10.0 µM): 73%
residual activity ([26]; compound 50.0 µM): 16%
residual activity ([27]; compound 1.0 µM): 99%
residual activity ([27]; compound 10.0 µM): 82%
residual activity ([27]; compound 50.0 µM): 41%
residual activity ([28]; compound 1.0 µM): 95%
residual activity ([28]; compound 10.0 µM): 79%
residual activity ([28]; compound 50.0 µM): 29%
residual activity [29]: 62%
residual activity [30]: 66%
residual activity ([31]; compound 1.0 µM): 97%
residual activity ([31]; compound 10.0 µM): 62%
residual activity ([31]; compound 50.0 µM): 22%
residual activity ([32]; compound 1.0 µM): 107%
residual activity ([32]; compound 10.0 µM): 74%
residual activity ([32]; compound 50.0 µM): 28%
residual activity [33]: 68%
residual activity ([34]; compound 1.0 µM): 78%
residual activity ([34]; compound 10.0 µM): 37%
residual activity ([34]; compound 50.0 µM): 27%
residual activity ([35]; compound 1.0 µM): 106%
residual activity ([35]; compound 10.0 µM): 101%
residual activity ([35]; compound 50.0 µM): 91%
residual activity ([36]; compound 1.0 µM): 103%
residual activity ([36]; compound 10.0 µM): 59%
residual activity ([36]; compound 50.0 µM): 34%
Compound: Oc1ccc(/C=C/c2cc(O)cc(O)c2)cc1
